According to patent US9144591B2, “Transcription modulator compositions” (Academia Sinica, priority 2006, dated 2015):

Experiments:
[1] = system: AR in a complex with IKKα; settings: 10 nM, five minutes, 22Rv/PSA36-103 cells
Description: We investigated if IKKα or IKKβ could interact with activated AR in 22Rv/PSA36-103 cells after androgen stimulation.

[2] = system: PSA promoter (androgen-responsive promoter) in 22RvPSA36-103 cells; assay: PSA-luciferase reporter assay, induction by steroid hormones; type: cell-based, human; settings: 20 hours; for PSA-luciferase activity stimulation: 10 nM, dose dependent, maximum
Experimental: The 22Rvl cell line was purchased from ATCC. Reporter plasmid (p5.7 kb-PSA-Luc) was constructed by inserting the 5.7 kb PSA promoter into pGL3 plasmid (Promega).
(§1) For luciferase activity assays, 8×10^4 22Rvl-derived cells were grown in 48-well multi-well plates. The cell culture medium was RPMI containing 5% charcoal coated dextran stripped fetal bovine serum (Hyclone). After the cells were grown for one day in culture, their growth medium was exchanged to include experimental or control compositions, as described below, and cell growth was continued for a further 20 hours. Cells were lysed by the addition of passive lysis buffer (Promega), then luciferase assays were performed using a luciferase assay system (Promega) and VICTOR^2 multilabel counter (PerkinElmer), and normalized to lysate protein as measured by a Coomassie (Bradford) Protein Assay Kit (Pierce).
The AR signaling pathway promotes the development of prostate cancer. Thus, we established a cell-based model to observe androgen-responsive promoter activity in human prostate cancer cells. […] 22RvPSA36-103 cells were incubated for 20 hours in the presence of an androgen.

[3] = system: androgen-responsive promoter activity in 22RvPSA36-103 cells; assay: Luciferase assay, inhibition of androgen-induced androgen-responsive promoter activity; type: cell-based, human; settings: 20 hours
Experimental: as §1
The ability of the IKK inhibitors 15-deoxy-Δ^12,14-prostaglandin J2, prostaglandin A1, and wedelolactone to inhibit androgen-responsive promoter activity was tested using the above-described luciferase assay.
A tet operon-regulated H1-small hairpin RNA expression cassette was constructed and inserted into the pcDNA6tTR™ plasmid from Invitrogen (Carlsbad, Calif.). Each knockdown plasmid was transfected into 22RvPSA36-103 cells to produce stably transfected cell lines. The knockdown of IKKα or IKKβ in daughter cell lines was determined by immunoblotting. […] To induce RNAi-mediated knockdown, cells were grown in medium containing 1 μg/ml doxycycline as compared to vehicle control for 3 days. Subsequent treatment and assays were performed according to the procedure of the aforementioned luciferase assays.

[4] = system: 22RvPSA36-103 cells; assay: Colony forming efficiency, crystal violet OD595, 22RvPSA36-103 cells; type: cell-based, human; settings: 6 days, plus androgen
Experimental: Given that activation of the AR signaling pathway stimulates prostate cancer cell proliferation and our finding that IKKα is implicated in this pathway, we sought to determine if IKKα inhibition would reduce prostate cancer cell proliferation. To this end, the colony forming efficiency of 22Rv1 cells and 22RvPSA36-103 cells in the presence of an androgen plus or minus an IKK inhibitor was determined by growing 2×10^4 cells in 12-well multi-well plates for 6 days. The growth medium was replaced every three days. At the end of the growth period, cell colonies were stained with 0.1% crystal violet in phosphate buffer saline, dried, and photographed. Cellular retention of crystal violet was extracted with 20% acetic acid in water and measured at OD595 as a quantitative indicator of colony forming efficiency.

[5] = system: 22Rv1 cells; assay: Colony forming efficiency, crystal violet OD595, 22Rv1 cells; type: cell-based, human; settings: 6 days, plus androgen

For `C[C@]12CCC(=O)C[C@@H]1CC[C@@H]1[C@@H]2CC[C@]2(C)[C@@H](O)CC[C@@H]12` [5α-dihydrotestosterone], the “Co-immunoprecipitation of the AR in a complex with IKKα” value [1] was “detected” and the PSA-luciferase activity stimulation [2] was “approximately 100 fold over baseline”.

In the case of `CCCCC/C=C/C=C1/C(=O)C=C[C@@H]1C/C=C\CCCC(=O)O` [15-deoxy-Δ^12,14-prostaglandin J2], the “Inhibition of 5α-dihydrotestosterone-induced luciferase expression” value [3] is reported as “inhibited 5α-dihydrotestosterone-induced luciferase expression in a dose-dependent manner”.

`C[C@]12CC[C@@H]3c4ccc(O)cc4CC[C@H]3[C@@H]1CC[C@@H]2O` [17-β-estradiol] was tested, and the “Induction of PSA-luciferase expression” value [2] was “failed to induce PSA-luciferase expression”.

`CC(=O)[C@H]1CC[C@H]2[C@@H]3CCC4=CC(=O)CC[C@]4(C)[C@H]3CC[C@]12C` [progesterone] was tested, and the “Induction of PSA-luciferase expression” value [2] was “failed to induce PSA-luciferase expression”.

With `CCCCC[C@H](O)/C=C/[C@H]1C=CC(=O)[C@@H]1CCCCCCC(=O)O` [prostaglandin A1] the “Inhibition of 5α-dihydrotestosterone-induced luciferase expression” value [3] was “inhibited 5α-dihydrotestosterone-induced luciferase expression in a dose-dependent manner”.

`C[C@]12CC[C@H]3[C@@H](CCC4=CC(=O)CC[C@@]43C)[C@@H]1CC[C@@H]2O` [testosterone] was tested, and the PSA-luciferase activity stimulation [2] was “approximately 100 fold over baseline”.

For `COc1cc(O)c2c(c1)oc(=O)c1c3cc(O)c(O)cc3oc21` [wedelolactone], the “Inhibition of 5α-dihydrotestosterone-induced luciferase expression” value [3] was “inhibited 5α-dihydrotestosterone-induced luciferase expression in a dose-dependent manner”, the “Inhibition of androgen-stimulated colony growth” value [4] was “highly effective” and the “Inhibition of androgen-stimulated colony growth” value [5] was “highly effective”.
